In the kinase profiling compilation of Christmann-Franck et al. (2016):

What was measured:
Assay in all cases: radiometric filter-binding kinase assay, Kinaseprofiler
CSK (human) = CSK (human) (UniProt P41240); conditions: compound 1.0 µM; ATP 15 µM
MAPK10 (human) = MAPK10 (human) (UniProt P53779); conditions: compound 1.0 µM; ATP 10 µM
EPHA2 (human) = EPHA2 (human) (UniProt P29317); conditions: compound 1.0 µM; ATP 155 µM
ACVR1B (human) = ACVR1B (human) (UniProt P36896); conditions: compound 1.0 µM; ATP 10 µM
PDGFRA (human) = PDGFRA (human) (UniProt P16234); conditions: compound 1.0 µM; ATP 120 µM
EPHA1 (human) = EPHA1 (human) (UniProt P21709); conditions: compound 1.0 µM; ATP 45 µM
INSR (human) = INSR (human) (UniProt P06213); conditions: compound 1.0 µM; ATP 200 µM
EPHB4 (human) = EPHB4 (human) (UniProt P54760); conditions: compound 1.0 µM; ATP 10 µM
MAP2K4 (mouse) = conditions: compound 1.0 µM; accession and sequence are those of the human protein
PTK6 (human) = PTK6 (human) (UniProt Q13882); conditions: compound 1.0 µM; ATP 15 µM
EPHB3 (human) = EPHB3 (human) (UniProt P54753); conditions: compound 1.0 µM; ATP 90 µM
PRKCZ (human) = PRKCZ (human) (UniProt Q05513); conditions: compound 1.0 µM; ATP 15 µM
PRKCE (human) = PRKCE (human) (UniProt Q02156); conditions: compound 1.0 µM; ATP 45 µM
YES1 (human) = YES1 (human) (UniProt P07947); conditions: compound 1.0 µM; ATP 45 µM
PRKCB2 (human) = PRKCB2 (human) (UniProt P05771); conditions: compound 1.0 µM; ATP 10 µM
MAP3K5 (human) = MAP3K5 (human) (UniProt Q99683); conditions: compound 1.0 µM; ATP 200 µM
NTRK1 (human) = NTRK1 (human) (UniProt P04629); conditions: compound 1.0 µM; ATP 120 µM
MAP3K9 (human) = MAP3K9 (human) (UniProt P80192); conditions: compound 1.0 µM; ATP 45 µM
CDK5 CDK5R1 p25 (human) = CDK5 CDK5R1 p25 (human) (UniProt Q00535+Q15078); conditions: compound 1.0 µM; ATP 15 µM
[1] = tested on: TEK (human), Q02763 [Q939H/Q940H]; conditions: compound 1.0 µM; ATP 200 µM
PRKD1 (human) = PRKD1 (human) (UniProt Q15139); conditions: compound 1.0 µM; ATP 45 µM
PAK7 (human) = PAK7 (human) (UniProt Q9P286); conditions: compound 1.0 µM; ATP 15 µM
[2] = tested on: SGK2 (human), Q9HBY8 [S416D]; conditions: compound 1.0 µM; ATP 15 µM
[3] = tested on: FLT4 (human), P35916 [V1128L/H1146R]; conditions: compound 1.0 µM; ATP 200 µM
BMX (human) = BMX (human) (UniProt P51813); conditions: compound 1.0 µM; ATP 45 µM
PRKCD (human) = PRKCD (human) (UniProt Q05655); conditions: compound 1.0 µM; ATP 15 µM
FGR (human) = FGR (human) (UniProt P09769); conditions: compound 1.0 µM; ATP 45 µM
CDK5 CDK5R1 p35 (human) = CDK5 CDK5R1 p35 (human) (UniProt Q00535+Q15078); conditions: compound 1.0 µM; ATP 15 µM
WNK3 (human) = WNK3 (human) (UniProt Q9BYP7); conditions: compound 1.0 µM; ATP 200 µM
IRAK1 (human) = IRAK1 (human) (UniProt P51617); conditions: compound 1.0 µM; ATP 45 µM
NTRK2 (human) = NTRK2 (human) (UniProt Q16620); conditions: compound 1.0 µM; ATP 90 µM
TSSK2 (human) = TSSK2 (human) (UniProt Q96PF2); conditions: compound 1.0 µM; ATP 15 µM
INSRR (human) = INSRR (human) (UniProt P14616); conditions: compound 1.0 µM; ATP 200 µM
FGFR1 (human) = FGFR1 (human) (UniProt P11362); conditions: compound 1.0 µM; ATP 200 µM
FLT1 (human) = FLT1 (human) (UniProt P17948); conditions: compound 1.0 µM; ATP 200 µM
[4] = tested on: PAK2 (human), Q13177 [L150F, P225T, V383I; A339 del]; conditions: compound 1.0 µM; ATP 90 µM
[5] = tested on: EEF2K (human), O00418 [H23R]; conditions: compound 1.0 µM; ATP 15 µM
STK3 (human) = STK3 (human) (UniProt Q13188); conditions: compound 1.0 µM; ATP 155 µM

Sequence of EPHA1 (human) (P21709 whole entry, looked up): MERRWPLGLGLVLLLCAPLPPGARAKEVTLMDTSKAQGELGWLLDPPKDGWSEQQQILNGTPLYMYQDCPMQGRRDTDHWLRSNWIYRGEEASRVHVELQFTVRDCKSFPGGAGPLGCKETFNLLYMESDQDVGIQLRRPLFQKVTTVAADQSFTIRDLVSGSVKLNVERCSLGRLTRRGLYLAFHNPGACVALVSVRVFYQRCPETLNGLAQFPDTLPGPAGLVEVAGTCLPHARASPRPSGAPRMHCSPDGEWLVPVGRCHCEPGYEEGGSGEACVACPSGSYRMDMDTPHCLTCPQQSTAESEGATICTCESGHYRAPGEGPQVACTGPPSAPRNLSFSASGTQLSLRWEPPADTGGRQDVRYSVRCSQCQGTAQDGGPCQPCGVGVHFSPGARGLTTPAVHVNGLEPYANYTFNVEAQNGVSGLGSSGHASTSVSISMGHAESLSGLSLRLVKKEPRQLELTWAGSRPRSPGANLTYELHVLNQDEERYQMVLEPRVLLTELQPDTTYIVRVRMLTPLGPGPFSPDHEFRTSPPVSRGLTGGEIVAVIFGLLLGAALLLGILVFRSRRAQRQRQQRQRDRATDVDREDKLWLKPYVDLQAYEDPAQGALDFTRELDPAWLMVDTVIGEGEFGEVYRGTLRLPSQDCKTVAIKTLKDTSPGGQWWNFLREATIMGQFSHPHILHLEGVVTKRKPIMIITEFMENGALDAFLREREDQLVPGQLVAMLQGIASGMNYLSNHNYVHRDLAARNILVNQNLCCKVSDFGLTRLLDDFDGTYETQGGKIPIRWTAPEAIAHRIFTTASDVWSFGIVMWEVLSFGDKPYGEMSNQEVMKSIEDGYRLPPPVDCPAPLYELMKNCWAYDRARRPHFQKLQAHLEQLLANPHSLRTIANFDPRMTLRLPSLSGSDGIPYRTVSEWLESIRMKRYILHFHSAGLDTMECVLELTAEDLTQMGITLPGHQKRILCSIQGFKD
Sequence of CDK5 CDK5R1 p25 (human) (Q00535 whole entry, looked up): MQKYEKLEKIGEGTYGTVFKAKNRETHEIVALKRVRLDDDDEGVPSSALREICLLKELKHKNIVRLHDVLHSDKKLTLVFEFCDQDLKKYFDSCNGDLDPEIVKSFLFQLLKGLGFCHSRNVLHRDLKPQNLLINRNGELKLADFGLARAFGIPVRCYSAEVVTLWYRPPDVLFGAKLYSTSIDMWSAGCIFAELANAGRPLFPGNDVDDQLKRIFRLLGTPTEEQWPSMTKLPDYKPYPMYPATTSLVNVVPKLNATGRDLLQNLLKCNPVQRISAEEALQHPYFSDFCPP
Sequence of CDK5 CDK5R1 p25 (human) (Q15078 whole entry, looked up): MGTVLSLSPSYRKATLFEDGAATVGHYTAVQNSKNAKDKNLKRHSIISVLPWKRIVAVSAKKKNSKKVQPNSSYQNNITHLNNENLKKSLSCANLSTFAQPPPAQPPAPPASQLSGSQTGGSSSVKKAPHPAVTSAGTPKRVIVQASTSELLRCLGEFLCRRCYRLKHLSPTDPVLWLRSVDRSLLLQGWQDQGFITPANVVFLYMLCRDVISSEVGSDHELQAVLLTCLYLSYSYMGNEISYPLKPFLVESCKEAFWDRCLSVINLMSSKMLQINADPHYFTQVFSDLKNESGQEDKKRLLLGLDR
Sequence of PTK6 (human) (Q13882 whole entry, looked up): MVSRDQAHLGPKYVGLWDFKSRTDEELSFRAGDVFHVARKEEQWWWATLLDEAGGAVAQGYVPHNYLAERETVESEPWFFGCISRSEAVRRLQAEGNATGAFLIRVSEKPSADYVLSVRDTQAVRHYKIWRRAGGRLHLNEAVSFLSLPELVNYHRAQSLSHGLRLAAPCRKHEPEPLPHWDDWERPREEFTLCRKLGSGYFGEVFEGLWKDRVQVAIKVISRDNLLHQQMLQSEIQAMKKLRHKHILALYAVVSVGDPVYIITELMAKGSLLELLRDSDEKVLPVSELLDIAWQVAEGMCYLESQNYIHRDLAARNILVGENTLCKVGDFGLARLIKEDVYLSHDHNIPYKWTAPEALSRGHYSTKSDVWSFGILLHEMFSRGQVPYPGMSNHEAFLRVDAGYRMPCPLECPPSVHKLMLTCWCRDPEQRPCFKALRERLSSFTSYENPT
Sequence of IRAK1 (human) (P51617 whole entry, looked up): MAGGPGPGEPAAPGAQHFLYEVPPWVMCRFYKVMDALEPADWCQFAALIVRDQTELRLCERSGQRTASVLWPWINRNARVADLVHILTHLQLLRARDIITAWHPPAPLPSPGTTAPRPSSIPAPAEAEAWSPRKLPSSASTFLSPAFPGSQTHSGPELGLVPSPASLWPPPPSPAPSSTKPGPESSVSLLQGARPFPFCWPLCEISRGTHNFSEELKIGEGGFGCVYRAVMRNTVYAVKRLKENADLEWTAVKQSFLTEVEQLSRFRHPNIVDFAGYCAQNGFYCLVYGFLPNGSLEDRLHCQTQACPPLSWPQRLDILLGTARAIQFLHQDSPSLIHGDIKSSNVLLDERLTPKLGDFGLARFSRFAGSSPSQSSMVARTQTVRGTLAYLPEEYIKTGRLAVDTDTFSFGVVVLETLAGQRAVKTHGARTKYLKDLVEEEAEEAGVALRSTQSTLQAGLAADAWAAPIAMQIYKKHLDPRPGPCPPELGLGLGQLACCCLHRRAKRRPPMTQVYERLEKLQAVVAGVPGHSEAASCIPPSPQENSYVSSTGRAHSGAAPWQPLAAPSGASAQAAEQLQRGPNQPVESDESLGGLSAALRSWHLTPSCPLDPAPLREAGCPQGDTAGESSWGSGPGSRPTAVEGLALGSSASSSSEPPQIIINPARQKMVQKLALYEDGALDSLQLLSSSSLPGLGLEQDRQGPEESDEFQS
Sequence of EPHB3 (human) (P54753 whole entry, looked up): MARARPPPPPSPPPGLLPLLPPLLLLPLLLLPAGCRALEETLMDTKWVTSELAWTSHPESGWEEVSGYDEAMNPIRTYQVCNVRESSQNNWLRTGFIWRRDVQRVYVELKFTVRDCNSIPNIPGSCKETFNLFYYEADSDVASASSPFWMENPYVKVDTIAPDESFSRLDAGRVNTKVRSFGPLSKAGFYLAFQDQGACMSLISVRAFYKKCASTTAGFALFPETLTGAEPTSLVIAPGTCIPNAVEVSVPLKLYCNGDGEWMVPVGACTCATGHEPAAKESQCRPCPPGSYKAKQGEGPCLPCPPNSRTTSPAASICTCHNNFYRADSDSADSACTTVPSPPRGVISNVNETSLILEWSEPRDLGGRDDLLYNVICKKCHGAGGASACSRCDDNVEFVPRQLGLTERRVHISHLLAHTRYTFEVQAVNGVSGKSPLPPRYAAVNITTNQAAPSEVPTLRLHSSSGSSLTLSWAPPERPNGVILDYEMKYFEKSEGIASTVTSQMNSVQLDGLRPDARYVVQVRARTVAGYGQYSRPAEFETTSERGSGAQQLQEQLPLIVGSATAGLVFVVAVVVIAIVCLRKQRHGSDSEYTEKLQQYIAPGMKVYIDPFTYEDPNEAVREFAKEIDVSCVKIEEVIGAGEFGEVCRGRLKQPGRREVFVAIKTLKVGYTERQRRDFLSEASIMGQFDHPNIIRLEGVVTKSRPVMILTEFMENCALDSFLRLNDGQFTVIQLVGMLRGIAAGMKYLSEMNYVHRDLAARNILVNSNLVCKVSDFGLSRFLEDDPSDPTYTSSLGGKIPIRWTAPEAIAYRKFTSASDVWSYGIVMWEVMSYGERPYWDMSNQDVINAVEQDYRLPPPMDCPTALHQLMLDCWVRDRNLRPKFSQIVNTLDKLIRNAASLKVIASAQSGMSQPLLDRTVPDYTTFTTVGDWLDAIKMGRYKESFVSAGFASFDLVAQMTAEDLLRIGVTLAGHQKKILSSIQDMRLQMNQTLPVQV
Sequence of EPHB4 (human) (P54760 whole entry, looked up): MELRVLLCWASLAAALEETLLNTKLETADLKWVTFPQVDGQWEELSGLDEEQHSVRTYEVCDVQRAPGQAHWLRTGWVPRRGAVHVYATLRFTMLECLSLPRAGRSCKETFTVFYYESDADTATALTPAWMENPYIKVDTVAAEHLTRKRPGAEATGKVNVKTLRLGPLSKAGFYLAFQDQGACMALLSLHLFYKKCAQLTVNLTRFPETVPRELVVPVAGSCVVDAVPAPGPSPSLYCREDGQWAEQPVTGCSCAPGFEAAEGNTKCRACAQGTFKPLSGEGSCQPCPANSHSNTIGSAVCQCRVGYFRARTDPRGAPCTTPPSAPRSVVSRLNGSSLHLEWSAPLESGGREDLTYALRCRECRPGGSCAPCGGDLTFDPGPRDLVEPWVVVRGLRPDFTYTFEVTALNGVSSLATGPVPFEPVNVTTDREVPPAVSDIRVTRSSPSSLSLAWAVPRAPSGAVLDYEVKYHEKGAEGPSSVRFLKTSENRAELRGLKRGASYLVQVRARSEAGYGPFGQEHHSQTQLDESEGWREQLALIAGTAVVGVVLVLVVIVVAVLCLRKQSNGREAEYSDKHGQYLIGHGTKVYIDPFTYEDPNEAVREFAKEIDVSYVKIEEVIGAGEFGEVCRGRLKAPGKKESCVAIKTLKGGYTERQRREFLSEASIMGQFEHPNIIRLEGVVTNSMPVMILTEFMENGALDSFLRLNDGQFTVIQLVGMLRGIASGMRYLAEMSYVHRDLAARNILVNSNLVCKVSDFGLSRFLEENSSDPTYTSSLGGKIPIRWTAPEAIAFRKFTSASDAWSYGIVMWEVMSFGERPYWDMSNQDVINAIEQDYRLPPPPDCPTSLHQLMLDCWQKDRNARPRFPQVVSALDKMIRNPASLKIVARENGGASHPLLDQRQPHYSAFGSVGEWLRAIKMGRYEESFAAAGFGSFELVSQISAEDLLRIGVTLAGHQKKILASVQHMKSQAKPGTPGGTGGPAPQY

## CN(C)S(=O)(=O)Nc1ccc2ccc3ncc(-c4cnn(C)c4)cc3c(=O)c2c1
CSK (human)
  residual activity: 85%
MAPK10 (human)
  residual activity: 53%
EPHA2 (human)
  residual activity: 80%
ACVR1B (human)
  residual activity: 100%
PDGFRA (human)
  residual activity: 59%
EPHA1 (human)
  residual activity: 65%
INSR (human)
  residual activity: 109%
EPHB4 (human)
  residual activity: 103%
MAP2K4 (mouse)
  residual activity: 87%
PTK6 (human)
  residual activity: 103%
EPHB3 (human)
  residual activity: 98%
PRKCZ (human)
  residual activity: 95%
PRKCE (human)
  residual activity: 103%
YES1 (human)
  residual activity: 71%
PRKCB2 (human)
  residual activity: 105%
MAP3K5 (human)
  residual activity: 98%
NTRK1 (human)
  residual activity: 1%
MAP3K9 (human)
  residual activity: 61%
CDK5 CDK5R1 p25 (human)
  residual activity: 88%
[1]
  residual activity: 66%
PRKD1 (human)
  residual activity: 93%
PAK7 (human)
  residual activity: 101%
[2]
  residual activity: 114%
[3]
  residual activity: 10%
BMX (human)
  residual activity: 73%
PRKCD (human)
  residual activity: 92%
FGR (human)
  residual activity: 90%
CDK5 CDK5R1 p35 (human)
  residual activity: 93%
WNK3 (human)
  residual activity: 78%
IRAK1 (human)
  residual activity: 83%
NTRK2 (human)
  residual activity: 15%
TSSK2 (human)
  residual activity: 83%
INSRR (human)
  residual activity: 103%
FGFR1 (human)
  residual activity: 5%
FLT1 (human)
  residual activity: 5%
[4]
  residual activity: 100%
[5]
  residual activity: 93%
STK3 (human)
  residual activity: 90%
